Reference: PubChem BioAssay AID2060496 (Molecular Pharmacology Branch, DTP, NCI, 2025)

Tested on: 276233-004-R-J1-PDC complex spheroid viability
Test: Anticancer human tumor 276233-004-R-J1-PDC patient-derived colon adenocarcinoma cell line growth inhibition [GQUAD]
Settings: for IC50: curve of first compound; for viability, T/C: stronger effect = lower value
Summary of the method: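 Multi-cell-type spheroids of tumor cells with HUVEC and mesenchymal stem cells, treated with drug combinations. Concentrations descend in half-log steps from near clinical Cmax, or from 10 microM where Cmax is unknown; viability read-out.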

[1] = second compound 0.0316 µM, first compound 0.0316 µM
[2] = second compound 0.0316 µM, first compound 0.1 µM
[3] = second compound 0.0316 µM, first compound 0.316 µM
[4] = second compound 0.0316 µM, first compound 1 µM
[5] = second compound 0.0316 µM, first compound 3.16 µM
[6] = second compound 0.0316 µM, first compound 10 µM
[7] = second compound 0.1 µM, first compound 0.0316 µM
[8] = second compound 0.1 µM, first compound 0.1 µM
[9] = second compound 0.1 µM, first compound 0.316 µM
[10] = second compound 0.1 µM, first compound 1 µM
[11] = second compound 0.1 µM, first compound 3.16 µM
[12] = second compound 0.1 µM, first compound 10 µM
[13] = second compound 0.316 µM, first compound 0.0316 µM
[14] = second compound 0.316 µM, first compound 0.1 µM
[15] = second compound 0.316 µM, first compound 0.316 µM
[16] = second compound 0.316 µM, first compound 1 µM
[17] = second compound 0.316 µM, first compound 3.16 µM
[18] = second compound 0.316 µM, first compound 10 µM
[19] = second compound 1 µM, first compound 0.0316 µM
[20] = second compound 1 µM, first compound 0.1 µM
[21] = second compound 1 µM, first compound 0.316 µM
[22] = second compound 1 µM, first compound 1 µM
[23] = second compound 1 µM, first compound 3.16 µM
[24] = second compound 1 µM, first compound 10 µM
[25] = second compound 3.16 µM, first compound 0.0316 µM
[26] = second compound 3.16 µM, first compound 0.1 µM
[27] = second compound 3.16 µM, first compound 0.316 µM
[28] = second compound 3.16 µM, first compound 1 µM
[29] = second compound 3.16 µM, first compound 3.16 µM
[30] = second compound 3.16 µM, first compound 10 µM
[31] = second compound 10 µM, first compound 0.0316 µM
[32] = second compound 10 µM, first compound 0.1 µM
[33] = second compound 10 µM, first compound 0.316 µM
[34] = second compound 10 µM, first compound 1 µM
[35] = second compound 10 µM, first compound 3.16 µM
[36] = second compound 10 µM, first compound 10 µM
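Further: spheroids exposed to drugs for seven days.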
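Wherever viability, T/C is given: 100% = DMSO vehicle control viability.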

Cc1cccc(N(C)C(=O)C2C(O)CCN2c2nc(C)cc(C(F)(F)F)c2C#N)c1 (centres undefined) + Cc1[nH]c2ccc(F)cc2c1-c1nc2c3cccnc3c3ncccc3c2[nH]1
IC50 (second compound 0.0316 µM): > 10 µM
IC50 (second compound 0.1 µM): > 10 µM
IC50 (second compound 0.316 µM): > 10 µM
IC50 (second compound 1 µM): > 10 µM
IC50 (second compound 3.16 µM): > 10 µM
IC50 (second compound 10 µM): > 10 µM
viability, T/C [1]: 110%
viability, T/C [2]: 83.8%
viability, T/C [3]: 87.2%
viability, T/C [4]: 87.4%
viability, T/C [5]: 117%
viability, T/C [6]: 114%
viability, T/C [7]: 88.2%
viability, T/C [8]: 95.6%
viability, T/C [9]: 86.4%
viability, T/C [10]: 95.3%
viability, T/C [11]: 96.6%
viability, T/C [12]: 97.8%
viability, T/C [13]: 74.6%
viability, T/C [14]: 78%
viability, T/C [15]: 103%
viability, T/C [16]: 97.8%
viability, T/C [17]: 96%
viability, T/C [18]: 96.8%
viability, T/C [19]: 77.4%
viability, T/C [20]: 85.2%
viability, T/C [21]: 71.6%
viability, T/C [22]: 79.2%
viability, T/C [23]: 90.5%
viability, T/C [24]: 85.2%
viability, T/C [25]: 60.5%
viability, T/C [26]: 56.8%
viability, T/C [27]: 61.6%
viability, T/C [28]: 59.6%
viability, T/C [29]: 59.8%
viability, T/C [30]: 62.6%
viability, T/C [31]: 53.7%
viability, T/C [32]: 58.4%
viability, T/C [33]: 58.6%
viability, T/C [34]: 52.1%
viability, T/C [35]: 58%
viability, T/C [36]: 64.7%

C#Cc1c(F)ccc2cc(O)cc(-c3ncc4c(N5CC6CCC(C5)N6)nc(OCC56CCCN5CC(F)C6)nc4c3F)c12 (centres undefined) + CN(C)c1ccc(Nc2c3ccc(NC(=O)CCN4CCCC4)cc3nc3cc(NC(=O)CCN4CCCC4)ccc23)cc1
IC50 (second compound 0.0316 µM): 3.31 µM
IC50 (second compound 0.1 µM): 3.14 µM
IC50 (second compound 0.316 µM): 1.3 µM
IC50 (second compound 1 µM): 0.368 µM
IC50 (second compound 3.16 µM): < 0.0316 µM
IC50 (second compound 10 µM): < 0.0316 µM
viability, T/C [1]: 90.1%
viability, T/C [2]: 79%
viability, T/C [3]: 101%
viability, T/C [4]: 75.6%
viability, T/C [5]: 52%
viability, T/C [6]: 36.9%
viability, T/C [7]: 78.7%
viability, T/C [8]: 74.2%
viability, T/C [9]: 56.4%
viability, T/C [10]: 56.8%
viability, T/C [11]: 54.8%
viability, T/C [12]: 42.2%
viability, T/C [13]: 54.7%
viability, T/C [14]: 47.2%
viability, T/C [15]: 57.1%
viability, T/C [16]: 54.2%
viability, T/C [17]: 39%
viability, T/C [18]: 30.1%
viability, T/C [19]: 65%
viability, T/C [20]: 54.8%
viability, T/C [21]: 54.9%
viability, T/C [22]: 40.4%
viability, T/C [23]: 49.1%
viability, T/C [24]: 42%
viability, T/C [25]: 51.2%
viability, T/C [26]: 40%
viability, T/C [27]: 36.5%
viability, T/C [28]: 39.2%
viability, T/C [29]: 39.1%
viability, T/C [30]: 35.1%
viability, T/C [31]: 43.6%
viability, T/C [32]: 43.7%
viability, T/C [33]: 40.2%
viability, T/C [34]: 40.7%
viability, T/C [35]: 36.6%
viability, T/C [36]: 27.4%
